Measurements: US10954210B2, “Crystal form of tipifarnib and preparation method and pharmaceutical composition thereof” (Hangzhou SoliPharma Co., Ltd., priority 2016, dated 2021)
“Also recorded” adds a separate entry of the source.

Key:
Format in all cases: physicochemical
[1] = Slurry experiment in water (stirred 3 days at room temperature, XRD); conditions: stirred in water at room temperature for 3 days, by XRD
Procedure: (§1) Instruments and characterization methods: • X-ray powder diffraction (XRPD): performed on Bruder D8 Advance diffractometer. The samples were tested at room temperature under the following conditions: scan range 3-40° 2θ, step size 0.02° 2θ, and speed 0.2 s/step.

[2] = Dynamic vapor sorption / isothermal sorption
Procedure: Dynamic vapor sorption data and isothermal sorption data were collected on TA Instruments Q5000 TGA. Method: place 1 mg to 10 mg sample into a platinum pan; the weight change of the sample during the change in relative humidity from 0% to 80% to 0% was measured.

[3] = Phase and chemical stability experiments (10 days storage, XRD and purity); conditions: for Form (10 days test results): by XRD; for crystalline form after storage / purity change after storage: 10 days at 60° C. dry condition and 40° C./75% RH condition
Procedure: as §1

Test results: crystalline form after stirring in water [1]	Test results: crystalline form after stirring in water ([1]; listed as Tipifarnib Form A)	weight change (isothermal sorption plot) ([2]; between 20 to 80% RH)	hygroscopicity ([2]; isothermal sorption plot, 20 to 80% RH)	Purity (%) (10 days test results) ([3]; 40° C./75% RH)	Form (10 days test results) ([3]; 40° C./75% RH)	Purity (%) (10 days test results) ([3]; 60° C./drying)	Form (10 days test results) ([3]; 60° C./drying)	Test results: crystalline form after stirring in water ([1]; listed as Tipifamib Form I)	Test results: crystalline form after stirring in water ([1]; listed as Tipifarnib Form II)	Test results: crystalline form after stirring in water ([1]; listed as Tipifarnib Form III)	Test results: crystalline form after stirring in water ([1]; listed as Tipifarnib Form IV)	SMILES	crystalline form after storage [3]	purity change after storage [3]
remained unchanged				99.86%	Tipifarnib Form II	99.84%	Tipifarnib Form II		Tipifarnib Form II			Cn1cncc1[C@@](N)(c1ccc(Cl)cc1)c1ccc2c(c1)c(-c1cccc(Cl)c1)cc(=O)n2C [Form II, (R)-6-(amino(4-chlorophenyl)(1-methyl-1H-imidazol-5-yl)methyl)-4-(3-chlorophenyl)-1-methyl-2(1H)-quinolinone]	remained their original forms; also recorded: remained its original form	essentially did not decrease; also recorded: essentially did not change
remained unchanged				99.80%	Tipifarnib Form III	99.80%	Tipifarnib Form III			Tipifarnib Form III		Cn1cncc1[C@@](N)(c1ccc(Cl)cc1)c1ccc2c(c1)c(-c1cccc(Cl)c1)cc(=O)n2C [Form III, (R)-6-(amino(4-chlorophenyl)(1-methyl-1H-imidazol-5-yl)methyl)-4-(3-chlorophenyl)-1-methyl-2(1H)-quinolinone]	remained their original forms; also recorded: remained its original form	essentially did not decrease; also recorded: essentially did not change
remained unchanged				99.73%	Tipifarnib Form IV	99.85%	Tipifarnib Form IV				Tipifarnib Form IV	Cn1cncc1[C@@](N)(c1ccc(Cl)cc1)c1ccc2c(c1)c(-c1cccc(Cl)c1)cc(=O)n2C [Form IV, (R)-6-(amino(4-chlorophenyl)(1-methyl-1H-imidazol-5-yl)methyl)-4-(3-chlorophenyl)-1-methyl-2(1H)-quinolinone]	remained their original forms; also recorded: remained its original form	essentially did not decrease; also recorded: essentially did not change

The next lines start with the molecule.

SMILES	Test results: crystalline form after stirring in water [1]	Test results: crystalline form after stirring in water ([1]; listed as Tipifarnib Form A)	weight change (isothermal sorption plot) ([2]; between 20 to 80% RH)	hygroscopicity ([2]; isothermal sorption plot, 20 to 80% RH)	Purity (%) (10 days test results) ([3]; 40° C./75% RH)	Form (10 days test results) ([3]; 40° C./75% RH)	Purity (%) (10 days test results) ([3]; 60° C./drying)	Form (10 days test results) ([3]; 60° C./drying)	Test results: crystalline form after stirring in water ([1]; listed as Tipifamib Form I)	Test results: crystalline form after stirring in water ([1]; listed as Tipifarnib Form II)	Test results: crystalline form after stirring in water ([1]; listed as Tipifarnib Form III)	Test results: crystalline form after stirring in water ([1]; listed as Tipifarnib Form IV)	crystalline form after storage [3]	purity change after storage [3]
Cn1cncc1[C@@](N)(c1ccc(Cl)cc1)c1ccc2c(c1)c(-c1cccc(Cl)c1)cc(=O)n2C [Form A, (R)-6-(amino(4-chlorophenyl)(1-methyl-1H-imidazol-5-yl)methyl)-4-(3-chlorophenyl)-1-methyl-2(1H)-quinolinone, reference compound]	transformed to tipifanib Form I	Tipifarnib Form I												
Cn1cncc1[C@@](N)(c1ccc(Cl)cc1)c1ccc2c(c1)c(-c1cccc(Cl)c1)cc(=O)n2C [Form I, (R)-6-(amino(4-chlorophenyl)(1-methyl-1H-imidazol-5-yl)methyl)-4-(3-chlorophenyl)-1-methyl-2(1H)-quinolinone]	remain unchanged		less than 0.2%	not hygroscopic	99.61%	Tipifarnib Form I	99.72%	Tipifarnib Form I	Tipifamib Form I				remained its original form; also recorded: remained their original forms	essentially did not change; also recorded: essentially did not decrease
